Experimental data: US11814367B2, “Inhibitors of glycogen synthase 1 (GYS1) and methods of use thereof” (Maze Therapeutics, Inc., priority 2021, dated 2023)

Key:
[1] = biological target: hGYS1 enzyme (recombinant hGYS1/GN1 protein) (Homo sapiens (Human), UniProt P13807); experiment: GYS1 coupled enzyme assay (PK/LDH); format: biochemical; settings: hGYS1/GN1 50 nM, UDP-Glucose 0.8 mM, G6P 1 mM; geometric mean of at least 2 runs
[2] = test system: hGYS1 enzyme / glycogen synthesis in HeLa cells; experiment: GYS1 cell based assay (glycogen synthesis, Glucose-glo); design: species or system human; settings: 24 h incubation, 20 mM glucose, geometric mean of at least 2 runs
Summary of the method: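 HeLa cells starved 24 h in medium containing only 1× Glutamax were plated onto compound in medium with 20 mM glucose (1% DMSO final) for 24 h, 37 °C, 5% CO2. Acid lysates were Tris-quenched, glucoamylase-digested (pH 5.3, 1 h, 37 °C) and read by Glucose-glo luminescence. IC50 came from Hill fits, as geometric mean of ≥2 runs.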

hGYS1 enzyme (recombinant hGYS1/GN1 protein), sequence (P13807 whole entry): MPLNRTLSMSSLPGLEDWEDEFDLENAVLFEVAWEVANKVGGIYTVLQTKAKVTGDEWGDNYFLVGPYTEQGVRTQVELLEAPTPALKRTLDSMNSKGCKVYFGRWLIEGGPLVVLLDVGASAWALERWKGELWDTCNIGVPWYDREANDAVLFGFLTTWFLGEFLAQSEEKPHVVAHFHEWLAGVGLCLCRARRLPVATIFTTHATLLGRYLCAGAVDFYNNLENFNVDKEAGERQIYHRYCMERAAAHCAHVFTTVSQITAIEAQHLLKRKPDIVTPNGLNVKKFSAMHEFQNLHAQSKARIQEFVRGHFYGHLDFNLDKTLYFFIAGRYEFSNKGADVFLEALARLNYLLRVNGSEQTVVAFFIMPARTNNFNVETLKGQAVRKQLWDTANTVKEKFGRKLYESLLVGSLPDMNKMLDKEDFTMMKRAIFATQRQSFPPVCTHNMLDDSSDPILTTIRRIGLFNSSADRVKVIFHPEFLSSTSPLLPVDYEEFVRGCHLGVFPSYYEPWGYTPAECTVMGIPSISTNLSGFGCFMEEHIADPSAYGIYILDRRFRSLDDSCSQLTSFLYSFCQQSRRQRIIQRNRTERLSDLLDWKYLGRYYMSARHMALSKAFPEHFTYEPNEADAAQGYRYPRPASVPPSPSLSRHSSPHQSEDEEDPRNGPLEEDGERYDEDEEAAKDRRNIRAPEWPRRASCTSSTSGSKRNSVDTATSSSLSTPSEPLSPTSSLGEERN
hGYS1 enzyme (recombinant hGYS1/GN1 protein), sequence (P46976 whole entry partner): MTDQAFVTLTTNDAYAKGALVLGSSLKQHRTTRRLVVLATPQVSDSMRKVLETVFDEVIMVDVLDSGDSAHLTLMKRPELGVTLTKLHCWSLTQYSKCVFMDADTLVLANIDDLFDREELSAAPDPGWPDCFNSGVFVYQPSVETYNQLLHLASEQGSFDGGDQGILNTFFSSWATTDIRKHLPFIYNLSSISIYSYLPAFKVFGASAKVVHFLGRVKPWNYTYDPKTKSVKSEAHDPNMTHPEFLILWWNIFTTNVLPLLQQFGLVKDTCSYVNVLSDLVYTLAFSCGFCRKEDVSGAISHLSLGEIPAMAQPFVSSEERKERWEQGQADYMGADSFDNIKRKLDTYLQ

IC50 [1] [µM] | IC50 ([2]; Homo sapiens, HeLa, 24 h) [µM] | IC50 [2] [µM] | SMILES
0.006 | 0.25 | – | Cn1cc(CC(=O)N2C[C@H](F)C[C@H]2C(=O)N[C@@H](c2ccccc2)c2ccc(C3CC3)c(F)n2)c(C(F)F)n1 [Compound 749, (2S,4R)-N-[(S)-(5-cyclopropyl-6-fluoropyridin-2-yl)(phenyl)methyl]-1-{2-[3-(difluoromethyl)-1-methyl-1H-pyrazol-4-yl]acetyl}-4-fluoropyrrolidine-2-carboxamide]
0.011 | 0.26 | – | Cc1cc(C(F)F)n(CC(=O)N2C[C@H](F)C[C@H]2C(=O)N[C@@H](c2ccccc2)c2ccc(C3CC3)c(F)n2)n1 [Compound 750, (2S,4R)-N-[(S)-(5-cyclopropyl-6-fluoropyridin-2-yl)(phenyl)methyl]-1-{2-[5-(difluoromethyl)-3-methyl-1H-pyrazol-1-yl]acetyl}-4-fluoropyrrolidine-2-carboxamide]
0.929 | > 26.3 | – | CC(=O)N1C[C@H](F)C[C@H]1C(=O)NC(c1cccc(-c2ccnn2C)c1)c1ccc(C(C)C)c(F)n1 (single isomer, unassigned) [Compound 695, (2S,4R)-1-acetyl-4-fluoro-N-[(S) or (R)-[6-fluoro-5-(propan-2-yl)pyridin-2-yl][3-(1-methyl-1H-pyrazol-5-yl)phenyl]methyl] pyrrolidine-2-carboxamide]
0.661 | 12.4 | – | Cn1c(CC(=O)N2C[C@H](F)C[C@H]2C(=O)N[C@@H](c2ccccc2)c2ccc(C3CC3)c(F)c2)noc1=O [Compound 494, (2S,4R)-N-[(S)-(4-cyclopropyl-3-fluorophenyl)(phenyl)methyl]-4-fluoro-1-[2-(4-methyl-5-oxo-4,5-dihydro-1,2,4-oxadiazol-3-yl)acetyl]pyrrolidine-2-carboxamide]
0.024 | 0.63 | – | CCn1cc(CC(=O)N2C[C@H](F)C[C@H]2C(=O)N[C@@H](c2ccccc2)c2ccc(C3CC3)c(F)n2)ncc1=O [Compound 742, (2S,4R)-N-[(S)-(5-cyclopropyl-6-fluoropyridin-2-yl)(phenyl)methyl]-1-[2-(4-ethyl-5-oxo-4,5-dihydropyrazin-2-yl)acetyl]-4-fluoropyrrolidine-2-carboxamide]
0.046 | 1.52 | – | O=C(N[C@@H](c1ccccc1)c1ccc(C2CC2)c(F)n1)[C@@H]1C[C@@H](F)CN1C(=O)CNC(=O)N(Cc1ccccc1)C(F)(F)F [Compound 744, (2S,4R)-1-(2-{[benzyl(trifluoromethyl)carbamoyl]amino}acetyl)-N-[(S)-(5-cyclopropyl-6-fluoropyridin-2-yl)(phenyl)methyl]-4-fluoropyrrolidine-2-carboxamide]
2.48 | – | > 30 | CC(C)c1ccc(C(NC(=O)[C@@H]2C[C@@H](F)CN2C(=O)Cc2cnn[nH]2)c2cccc(-c3cnco3)c2)nc1F (single isomer, unassigned) [Compound 692, (2S,4R)-4-fluoro-N-[(R) or (S)-[6-fluoro-5-(propan-2-yl)pyridin-2-yl][3-(1,3-oxazol-5-yl)phenyl]methyl]-1-[2-(1H-1,2,3-triazol-5-yl)acetyl]pyrrolidine-2-carboxamide]
0.056 | – | 1.15 | CC(C)c1ccc(C(NC(=O)[C@@H]2C[C@@H](F)CN2C(=O)Cc2cnn[nH]2)c2cccc(-c3cnco3)c2)nc1F (single isomer, unassigned) [Compound 693, (2S,4R)-4-fluoro-N-[(S) or (R)-[6-fluoro-5-(propan-2-yl)pyridin-2-yl][3-(1,3-oxazol-5-yl)phenyl]methyl]-1-[2-(1H-1,2,3-triazol-5-yl)acetyl]pyrrolidine-2-carboxamide]
0.015 | 0.33 | – | COc1nc(CC(=O)N2C[C@H](F)C[C@H]2C(=O)N[C@@H](c2ccccc2)c2ccc(C(C)C)cn2)nn1C [Compound 712, (2S,4R)-4-fluoro-1-[2-(5-methoxy-1-methyl-1H-1,2,4-triazol-3-yl)acetyl]-N-[(S)-phenyl[5-(propan-2-yl)pyridin-2-yl]methyl]pyrrolidine-2-carboxamide]
0.018 | 0.59 | – | O=C(N[C@@H](c1ccccc1)c1ccc(C2CC2)c(F)n1)[C@@H]1C[C@@H](F)CN1C(=O)Cn1cnnc1C(F)F [Compound 759, (2S,4R)-N-[(S)-(5-cyclopropyl-6-fluoropyridin-2-yl)(phenyl)methyl]-1-{2-[3-(difluoromethyl)-4H-1,2,4-triazol-4-yl]acetyl}-4-fluoropyrrolidine-2-carboxamide]
0.019 | 0.45 | – | CC(C)c1ccc([C@@H](NC(=O)[C@@H]2C[C@@H](F)CN2C(=O)Cn2nncc2N2CC(F)(F)C2)c2ccccc2)nc1F [Compound 807, (2S,4R)-1-{2-[5-(3,3-difluoroazetidin-1-yl)-1H-1,2,3-triazol-1-yl]acetyl}-4-fluoro-N-[(S)-[6-fluoro-5-(propan-2-yl)pyridin-2-yl](phenyl)methyl] pyrrolidine-2-carboxamide]
2.78 | > 30 | – | CC(C)c1ccc(C(NC(=O)[C@@H]2C[C@@H](F)CN2C(=O)Cc2cnn[nH]2)c2ncc3ccccn23)nc1F (single isomer, unassigned) [Compound 628, (2S,4R)-4-fluoro-N-[(R) or (S)-[6-fluoro-5-(propan-2-yl)pyridin-2-yl]({imidazo[1,5-a]pyridin-3-yl})methyl]-1-[2-(1H-1,2,3-triazol-5-yl)acetyl]pyrrolidine-2-carboxamide]
0.127 | 1.5 | – | O=C(NC(c1ccc(C2CC2)c(F)n1)c1ccccc1F)[C@@H]1C[C@@H](F)CN1C(=O)Cn1nnnc1C(F)F (single isomer, unassigned) [Compound 657, (2S,4R)-N-[(S) or (R)-(5-cyclopropyl-6-fluoropyridin-2-yl)(2-fluorophenyl)methyl]-1-{2-[5-(difluoromethyl)-1H-1,2,3,4-tetrazol-1-yl]acetyl}-4-fluoropyrrolidine-2-carboxamide]
0.103 | 15.8 | – | O=C(N[C@@H](c1ccccc1)c1ccc(C2CC2)c(F)c1)[C@@H]1C[C@@H](F)CN1C(=O)CCc1n[nH]c(=O)[nH]1 [Compound 493, (2S,4R)-N-[(S)-(4-cyclopropyl-3-fluorophenyl)(phenyl)methyl]-4-fluoro-1-[3-(5-oxo-4,5-dihydro-1H-1,2,4-triazol-3-yl)propanoyl]pyrrolidine-2-carboxamide]
1.15 | > 9.01 | – | CC(C)c1ccc([C@H](NC(=O)[C@@H]2C[C@@H](F)CN2C(=O)Cc2cnn[nH]2)c2ccccc2)nc1F (relative stereo) [Compound 776, (2S,4R)-4-fluoro-N-[(R*)-[6-fluoro-5-(propan-2-yl)pyridin-2-yl](phenyl)methyl]-1-[2-(1H-1,2,3-triazol-5-yl)acetyl] pyrrolidine-2-carboxamide]
0.015 | 0.53 | – | CCN(CC)c1cnnn1CC(=O)N1C[C@H](F)C[C@H]1C(=O)N[C@@H](c1ccccc1)c1ccc(C2CC2)c(F)n1 [Compound 748, (2S,4R)-N-[(S)-(5-cyclopropyl-6-fluoropyridin-2-yl)(phenyl)methyl]-1-{2-[5-(diethylamino)-1H-1,2,3-triazol-1-yl]acetyl}-4-fluoropyrrolidine-2-carboxamide]
